According to ChEMBL document CHEMBL1157115, “Macrocyclic BACE inhibitors: Optimization of a micromolar hit to nanomolar leads” (Bioorg Med Chem Lett, 2010):
pIC50, pKi: −log10 of the molar value.

Tests used:
Beta-secretase 1 [1] = target: T1, Beta-secretase 1 (Homo sapiens, UniProt P56817); experiment: Inhibition of BACE1 assessed as amyloid beta (1-40) production
Beta-secretase 1 [2] = target: T1, Beta-secretase 1
Mus musculus [3] = experiment: Reduction in amyloid beta in mouse plasma at 25 mg/kg, po; type: ADME, organism-based; design: dose 25 mg/kg, route oral; scale not given: the % may be the effect or the level left; conditions: in vivo
Mus musculus [4] = experiment: Reduction in amyloid beta in mouse plasma at 50 mg/kg, po; type: ADME, organism-based; design: dose 50 mg/kg, route oral; scale not given: the % may be the effect or the level left; conditions: in vivo
Mus musculus [5] = experiment: Reduction in amyloid beta in mouse plasma at 10 mg/kg, po; type: ADME, organism-based; design: dose 10 mg/kg, route oral; scale not given: the % may be the effect or the level left; conditions: in vivo

T1 sequence (P56817 whole entry): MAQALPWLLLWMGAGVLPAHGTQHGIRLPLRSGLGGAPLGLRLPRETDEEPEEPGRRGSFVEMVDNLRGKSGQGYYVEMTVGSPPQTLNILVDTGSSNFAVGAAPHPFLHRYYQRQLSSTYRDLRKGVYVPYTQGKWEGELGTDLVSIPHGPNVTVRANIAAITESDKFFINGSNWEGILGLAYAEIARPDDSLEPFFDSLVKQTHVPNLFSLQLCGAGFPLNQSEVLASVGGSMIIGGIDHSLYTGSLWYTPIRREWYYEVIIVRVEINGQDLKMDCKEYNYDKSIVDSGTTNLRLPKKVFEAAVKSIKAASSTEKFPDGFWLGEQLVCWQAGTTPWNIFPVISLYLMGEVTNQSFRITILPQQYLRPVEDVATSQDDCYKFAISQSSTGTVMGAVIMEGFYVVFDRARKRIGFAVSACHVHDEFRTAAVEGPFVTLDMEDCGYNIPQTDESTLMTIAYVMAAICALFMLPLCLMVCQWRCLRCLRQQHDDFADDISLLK

Row | pIC50 (Beta-secretase 1 [1]) | pKi (Beta-secretase 1 [2]) | Activity (Mus musculus [3]) [%] | Activity (Mus musculus [4]) [%] | Activity (Mus musculus [5]) [%] | SMILES
1 | 7.52 | 8.10 |  |  |  | NC1=Nc2cc(F)c3cc2CN1[C@H](C1CCCCC1)CCC(=O)N(C1CCCCC1)CCc1cccc(c1)O3
2 | 8.15 | 8.30 |  |  |  | NC1=Nc2cnc3cc2CN1[C@H](C1CCCCC1)CCC(=O)N(C1CCCCC1)CCc1cccc(c1)O3
3 |  |  | 22 | 23 | 13 | NC1=Nc2ccc3cc2CN1[C@H](C1CCCCC1)CCC(=O)N(C1CCCCC1)CCc1cccc(c1)O3

Row | SMILES | pIC50 (Beta-secretase 1 [1]) | pKi (Beta-secretase 1 [2]) | Activity (Mus musculus [3]) [%] | Activity (Mus musculus [4]) [%] | Activity (Mus musculus [5]) [%]
4 | CC(C)[C@@H]1CCC(=O)N(C2CCOCC2)CCc2cccc(c2)Oc2ccc3c(c2)CN1C(N)=N3 | 6.16 |  |  |  | 
